Data set [1] has as its system Liver microsome. The data set can be described thus: Intrinsic clearance in human pooled liver microsomes at 1 uM by LC/MS analysis. The data set is classed as ADME. (In general: Liver microsomes are vesicles of endoplasmic reticulum, rich in cytochrome P450 enzymes.)
In data set [2] the test system is Liver microsome. The data set can be described thus: Intrinsic clearance in rat pooled liver microsomes at 1 uM by LC/MS analysis. The data set is classed as ADME.
Data set [3] concerns the target T1, Neuropeptide Y receptor type 5 (Homo sapiens, UniProt Q15761).
T1 sequence (Q15761 whole entry): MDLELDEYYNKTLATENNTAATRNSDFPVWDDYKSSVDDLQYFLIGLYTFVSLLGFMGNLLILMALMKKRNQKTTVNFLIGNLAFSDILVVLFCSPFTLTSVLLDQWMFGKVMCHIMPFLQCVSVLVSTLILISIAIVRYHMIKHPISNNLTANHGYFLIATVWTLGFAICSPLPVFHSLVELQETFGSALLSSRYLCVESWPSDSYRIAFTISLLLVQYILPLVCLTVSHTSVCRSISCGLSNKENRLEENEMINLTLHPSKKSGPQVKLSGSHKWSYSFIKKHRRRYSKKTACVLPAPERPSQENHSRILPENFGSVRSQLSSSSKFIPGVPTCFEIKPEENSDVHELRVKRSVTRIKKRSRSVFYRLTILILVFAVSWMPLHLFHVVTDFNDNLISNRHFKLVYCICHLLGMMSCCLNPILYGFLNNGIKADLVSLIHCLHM
Description: Displacement of [125I]PYY from human NPY5 receptor transfected in LM(tk-) cell membranes after 120 mins by solid scintillation counting. A general note: Displacement assays read how much labelled ligand stays bound in the presence of the test substance.

Data set [4] in a line: Ratio of drug level in brain to plasma in femoral artery cannulated Sprague-Dawley rat at 10 mg/kg, po after 1 hr by LC/MS/MS analysis. The following applies: read-out: BPR. The arrangement: dose 10 mg/kg, route oral. The data set is classed as ADME, organism-based.
Data set [5] can be described thus: Plasma concentration in femoral artery cannulated Sprague-Dawley rat at 10 mg/kg, po after 1 hr by LC/MS/MS analysis. The format is ADME, organism-based. Also on record: dose 10 mg/kg, route oral.
Data set [6] in a line: Drug uptake in femoral artery cannulated Sprague-Dawley rat brain at 10 mg/kg, po after 1 hr by LC/MS/MS analysis. The format is ADME, organism-based. The following applies: read-out: Drug uptake. The arrangement: dose 10 mg/kg, route oral.
A short description of data set [7]: Solubility of the compound at pH 7.4 by classic shake flask method. The following applies: buffer. The data set is classed as physicochemical.
Data set [8] is described as follows: Oral bioavailability in Sprague-Dawley rat at 2 mg/kg by LC/MS analysis. The data set is classed as ADME, organism-based. As to conditions: in vivo.
A further data set deals with Rattus norvegicus. Description: AUC (0 to infinity) in Sprague-Dawley rat at 2 mg/kg, po by LC/MS analysis. The format is ADME, organism-based, Plasma. The arrangement: time infinity, dose 2 mg/kg, route oral. The following applies: in vivo.
Data set [9] is described as follows: Clearance in Sprague-Dawley rat at 1 mg/kg, iv and 2 mg/kg, po by LC/MS analysis. The following applies: in vivo. The data set is classed as ADME, organism-based.
A short description of data set [10]: Volume of distribution at steady state in Sprague-Dawley rat at 1 mg/kg, iv and 2 mg/kg, po by LC/MS analysis. The format is ADME, organism-based. The following applies: in vivo, read-out: Vdss.
Data set [11] is described as follows: Half life in Sprague-Dawley rat at 1 mg/kg, iv and 2 mg/kg, po by LC/MS analysis. The format is ADME, organism-based. The following applies: in vivo.

Data on 16 compounds can be found in ChEMBL document CHEMBL3124873, “cis-1-Oxo-heterocyclyl-4-amido cyclohexane derivatives as NPY5 receptor antagonists” (Bioorg Med Chem Lett, 2014).

Each structure is given as a SMILES string. ≈ marks a conversion by molar mass, not a printed value.

For the compound `C[C@@H]1CN([C@H]2CC[C@@H](C(=O)Nc3ccc(-c4cc(F)cc(F)c4)cn3)CC2)C(=O)O1`, the CLH worked out at 0.9 L/min in the data set on Liver microsome [1] and 7 mL/min with Liver microsome [2]. The Ki – broadly, a measure of affinity in units of concentration, obtained from inhibition or displacement – in data set [3] came to 3 nM.
With `O=C1CCCN1[C@H]1CC[C@@H](C(=O)Nc2ncc(-c3cc(F)cc(F)c3)cn2)CC1`, in data set [4], the Kp at 1 h was 0.14. Further, the figures for the concentration at 1 h in data set [5] and in [6] were 2800 nM and 380 nM, respectively. The CLH in the data set with Liver microsome [1] was 0.7 L/min; in the data set with Liver microsome [2], 31 mL/min. The solubility (thermodynamic) (usually the concentration in solution at equilibrium with solid) in data set [7] worked out at 38 µg/mL (≈ 94.9 µM). In [3], the affinity corresponds to a Ki of 5 nM.
As to `CN1CCCN([C@H]2CC[C@@H](C(=O)Nc3ccc(-c4cc(F)cc(F)c4)cn3)CC2)C1=O`, the results for the CLH with Liver microsome [1] and in the data set on Liver microsome [2] were 1.1 L/min and 19 mL/min, respectively. Also, the thermodynamic solubility in data set [7] stood at 5.4 µg/mL (≈ 12.6 µM).
Consider `O=C1OCCN1[C@H]1CC[C@@H](C(=O)Nc2ccc(-c3cc(F)cc(F)c3)cn2)CC1`, for which, in data set [8], the bioavailability was determined as 83%. Moreover, the AUC – broadly, the area under the concentration-time curve, a measure of exposure – with Rattus norvegicus is 2000 ng·h/mL. The same compound showed a clearance in [9] of 14.2 mL/min/kg. Moreover, in [10], the Vd is 3.4 L/kg. The half-life (usually the time needed for the level to fall by half in the phase considered) in data set [11] is 2.8 h. Further, the Kp at 1 h in data set [4] worked out at 0.5. Also, the figures for the concentration at 1 h in [5] and in [6] were 3000 nM and 1500 nM, respectively. In addition, the values for the CLH in the data set on Liver microsome [1] and in the data set on Liver microsome [2] were 0.4 L/min and 9.5 mL/min, respectively. The same compound returned a solubility (thermodynamic) in data set [7] of 4 µg/mL (≈ 9.96 µM).
Consider `CCN1CCN([C@H]2CC[C@@H](C(=O)Nc3ccc(-c4cc(F)cc(F)c4)cn3)CC2)C1=O`, for which the figures for the CLH in the data set on Liver microsome [1] and in the data set with Liver microsome [2] were 1.6 L/min and 17 mL/min, respectively. In data set [7], this compound came in with a thermodynamic solubility of 1.6 µg/mL (≈ 3.73 µM). For the same compound, the Ki in [3] came to 10 nM.
`O=C1NCCN1[C@H]1CC[C@@H](C(=O)Nc2ccc(-c3cc(F)cc(F)c3)cn2)CC1`: the Kp at 1 h in data set [4] is 0.2. Also, the concentration at 1 h came out at 6800 nM in [5] and 1400 nM in data set [6]. Moreover, the figures for the CLH with Liver microsome [1] and in the data set on Liver microsome [2] were 1.7 L/min and 37 mL/min, respectively. The compound also displayed a thermodynamic solubility in data set [7] of 4.5 µg/mL (≈ 11.2 µM). The same compound returned a Ki in data set [3] of 5 nM.
As for `O=C1NCCCN1[C@H]1CC[C@@H](C(=O)Nc2ccc(-c3cc(F)cc(F)c3)cn2)CC1`, the CLH in the data set on Liver microsome [1] is 1.1 L/min; with Liver microsome [2], 18 mL/min. Also, the solubility (thermodynamic) in [7] was determined as 1.3 µg/mL (≈ 3.14 µM).
With `O=C1N(C2CC2)CCN1[C@H]1CC[C@@H](C(=O)Nc2ccc(-c3cc(F)cc(F)c3)cn2)CC1`, the results for the CLH in the data set on Liver microsome [1] and in the data set with Liver microsome [2] were 1 L/min and 8.4 mL/min, respectively. The compound further registered an inhibition constant Ki in data set [3] of 9 nM.
In data set [3], `O=C1CCCCN1[C@H]1CC[C@@H](C(=O)Nc2ccc(-c3cc(F)cc(F)c3)cn2)CC1` returned a Ki of 2 nM.
For `CN1CCN([C@H]2CC[C@@H](C(=O)Nc3ccc(-c4cc(F)cc(F)c4)cn3)CC2)C1=O`, the bioavailability in data set [8] amounted to 110%. Besides, the AUC with Rattus norvegicus is 4100 ng·h/mL. Besides, the clearance in data set [9] was 9.5 mL/min/kg. The Vd in data set [10] stood at 2.8 L/kg. The same compound showed a half-life in data set [11] of 3.5 h. In addition, in data set [4], the Kp at 1 h stood at 0.6. Further, the concentration at 1 h came to 5000 nM in data set [5] and 3100 nM in data set [6]. Also, the CLH in the data set on Liver microsome [1] was 0.8 L/min; in the data set on Liver microsome [2], 8.8 mL/min. Moreover, the thermodynamic solubility in data set [7] was 1.1 µg/mL (≈ 2.65 µM). For the same compound, the Ki in [3] came out at 5 nM.
For the compound `CN(c1ccc(-c2cc(F)cc(F)c2)cn1)C(=O)[C@H]1CC[C@@H](N2CCCC2=O)CC1`, in [3], the Ki is more than 10000 nM.
Same read-out and setting: then `CC(C)N1CCN([C@H]2CC[C@@H](C(=O)Nc3ccc(-c4cc(F)cc(F)c4)cn3)CC2)C1=O`, with 41 nM.
In the case of `C[C@H]1CN([C@H]2CC[C@@H](C(=O)Nc3ccc(-c4cc(F)cc(F)c4)cn3)CC2)C(=O)O1`, the CLH in the data set on Liver microsome [1] is 1.1 L/min; in the data set on Liver microsome [2], 15 mL/min. In [3], this compound showed a Ki of 7 nM.
For the compound `CC(C)(C)C1CN([C@H]2CC[C@@H](C(=O)Nc3ccc(-c4cc(F)cc(F)c4)cn3)CC2)C(=O)O1` (mixture of isomers), the values for the CLH in the data set on Liver microsome [1] and in the data set on Liver microsome [2] were 3.9 L/min and 25 mL/min, respectively. Moreover, in [3], the affinity, expressed as Ki, was 4 nM.
On the same counts, the results for `O=C1CCCN1[C@H]1CC[C@@H](C(=O)Nc2cnc(-c3cc(F)cc(F)c3)cn2)CC1` are 0.9 L/min, 9.5 mL/min and 6 nM.
For `O=C1CCCN1[C@H]1CC[C@@H](C(=O)Nc2ccc(-c3cc(F)cc(F)c3)cn2)CC1`, the bioavailability in data set [8] worked out at 110%. This compound also had an AUC in the data set with Rattus norvegicus of 4300 ng·h/mL. In addition, the clearance in data set [9] is 8.67 mL/min/kg. Further, the Vd in data set [10] is 3.2 L/kg. In [11], the half-life is 4.4 h. In [4], the Kp at 1 h came out at 1. For the same compound, the concentration at 1 h in data set [5] and in [6] was 2800 nM in each case. In addition, the CLH in the data set with Liver microsome [1] was found to be 1 L/min; with Liver microsome [2], 12 mL/min. Also, the thermodynamic solubility in [7] came to 0.7 µg/mL (≈ 1.75 µM). In addition, in [3], the Ki is 8 nM.
